Test results from article PMC11995724, “Antibiotic target discovery by integrated phenotypic and activity-based profiling of electrophilic fragments” (Cell chemical biology, 2025).

Experiment: in vitro
Conditions: human, hek293t cells

| Structure (SMILES) | viability at 48 h, 25 µM [%] |
| --- | --- |
| C=CC(=O)Nc1ccc(C(=O)N[C@@H]2CCN(C(C)=O)C2)cc1 [2-F20, N-[(3R)-1-acetylpyrrolidin-3-yl]-4-(prop-2-enamido)benzamide] | 73.4 |
| C=CC(=O)Nc1ccnc(OC)c1 [2-F21, N-(2-methoxypyridin-4-yl)prop-2-enamide] | 1.66 |
| C=CC(=O)NCc1ccc(C(=O)N2CCN(c3nc(C)n[nH]3)CC2)cc1 [2-F22, N-({4-[4-(3-methyl-1H-1,2,4-triazol-5-yl)piperazine-1-carbonyl]phenyl}methyl)prop-2-enamide] | 78.3 |
| C=CC(=O)N1CCC[C@H]1c1ccon1 [2-G03, 1-[(2S)-2-(1,2-oxazol-3-yl)pyrrolidin-1-yl]prop-2-en-1-one] | 181 |
| C=CC(=O)N1CCC(C(=O)NCC(C)(C)C=C)CC1 [2-G04, N-(2,2-dimethylbut-3-en-1-yl)-1-(prop-2-enoyl)piperidine-4-carboxamide] | 84.5 |
| C=CC(=O)Nc1nn(CC(C)C)cc1Cl [2-G05, N-[4-chloro-1-(2-methylpropyl)-1H-pyrazol-3-yl]prop-2-enamide] | 103 |
| C=CC(=O)N1Cc2ccccc2C[C@@H]1C(=O)NC1CC1 [2-G06, (3R)-N-cyclopropyl-2-(prop-2-enoyl)-1,2,3,4-tetrahydroisoquinoline-3-carboxamide] | 101 |
| C=CC(=O)N(Cc1cnn(C2CCC2)c1)C1CCCc2occc21 (stereo not shown) [2-G07, N-[(1-cyclobutyl-1H-pyrazol-4-yl)methyl]-N-(4,5,6,7-tetrahydro-1-benzofuran-4-yl)prop-2-enamide] | 103 |
| C=CC(=O)NCCc1cscn1 [2-G08, N-[2-(1,3-thiazol-4-yl)ethyl]prop-2-enamide] | 87.1 |
| C=CC(=O)N(C)Cc1cccc(Cl)c1 [2-G09, N-[(3-chlorophenyl)methyl]-N-methylprop-2-enamide] | 60.6 |
| C=CC(=O)N1CCC(C(=O)NCc2c[nH]cn2)CC1 [2-G10, N-[(1H-imidazol-4-yl)methyl]-1-(prop-2-enoyl)piperidine-4-carboxamide] | 98.7 |
| C=CC(=O)Nc1cc(NC(=O)c2cnn(-c3ccccc3)c2)ccc1F [2-G11, N-[4-fluoro-3-(prop-2-enamido)phenyl]-1-phenyl-1H-pyrazole-4-carboxamide] | 0.749 |
| C=CC(=O)NCCC(=O)Nc1c(C)c(C)nn1C [2-G12, N-{2-[(1,3,4-trimethyl-1H-pyrazol-5-yl)carbamoyl]ethyl}prop-2-enamide] | 93 |
| C=CC(=O)N(Cc1c(C)nn(CC)c1C)c1ccc2c(c1)COC2 [2-G13, N-(1,3-dihydro-2-benzofuran-5-yl)-N-[(1-ethyl-3,5-dimethyl-1H-pyrazol-4-yl)methyl]prop-2-enamide] | 80.2 |
| C=CC(=O)N(CC)CC(=O)N1CCCC(F)(F)C1 [2-G14, N-[2-(3,3-difluoropiperidin-1-yl)-2-oxoethyl]-N-ethylprop-2-enamide] | 97.5 |
| C=CC(=O)N1CCC(NC(C)=O)(c2noc(C)n2)C1 (stereo not shown) [2-G16, N-[3-(5-methyl-1,2,4-oxadiazol-3-yl)-1-(prop-2-enoyl)pyrrolidin-3-yl]acetamide] | 94.8 |
| C=CC(=O)NC1CCOCC1 [2-G17, N-(oxan-4-yl)prop-2-enamide] | 93.3 |
| C=CC(=O)N1CCC(c2ncc(C(=O)O)o2)CC1 [2-G19, 2-[1-(prop-2-enoyl)piperidin-4-yl]-1,3-oxazole-5-carboxylic acid] | 101 |
| C=CC(=O)N1CCC(Cc2noc(C)n2)CC1 [2-G22, 1-{4-[(5-methyl-1,2,4-oxadiazol-3-yl)methyl]piperidin-1-yl}prop-2-en-1-one] | 103 |
| C=CC(=O)NCc1cn(C)nc1-c1ccccn1 [2-H03, N-{[1-methyl-3-(pyridin-2-yl)-1H-pyrazol-4-yl]methyl}prop-2-enamide] | 79.4 |
| C=CC(=O)N1CCC(C(=O)Nc2cccc(N3CCCC3=O)c2)CC1 [2-H04, N-[3-(2-oxopyrrolidin-1-yl)phenyl]-1-(prop-2-enoyl)piperidine-4-carboxamide] | 84.3 |
| C=CC(=O)N1CCC(C(=O)NCCC2CCS(=O)(=O)C2)CC1 (stereo not shown) [2-H05, N-[2-(1,1-dioxo-1lambda6-thiolan-3-yl)ethyl]-1-(prop-2-enoyl)piperidine-4-carboxamide] | 78.2 |
| C=CC(=O)NCc1nonc1C [2-H07, N-[(4-methyl-1,2,5-oxadiazol-3-yl)methyl]prop-2-enamide] | 57.6 |
| C=CC(=O)N(CC)CC(=O)N1CCc2c(ncn2CC)C1 [2-H08, N-ethyl-N-(2-{1-ethyl-1H,4H,5H,6H,7H-imidazo[4,5-c]pyridin-5-yl}-2-oxoethyl)prop-2-enamide] | 84.8 |
| C=CC(=O)N1CCC(C(=O)N2CCC(CC(=O)N(C)C)CC2)CC1 [2-H09, N,N-dimethyl-2-{1-[1-(prop-2-enoyl)piperidine-4-carbonyl]piperidin-4-yl}acetamide] | 61.5 |
| C=CC(=O)N1CCC(C(=O)Nc2cnn(COC)c2)CC1 [2-H10, N-[1-(methoxymethyl)-1H-pyrazol-4-yl]-1-(prop-2-enoyl)piperidine-4-carboxamide] | 79 |

| Structure (SMILES) | viability at 48 h, 25 µM [%] |
| --- | --- |
| C=CC(=O)N(C)Cc1nnc(C2CC2)n1C [2-H11, N-[(5-cyclopropyl-4-methyl-4H-1,2,4-triazol-3-yl)methyl]-N-methylprop-2-enamide] | 72.8 |
| C=CC(=O)N1CCC(C(=O)Nc2ccn(CC(=O)N(C)C)n2)CC1 [2-H12, N-{1-[(dimethylcarbamoyl)methyl]-1H-pyrazol-3-yl}-1-(prop-2-enoyl)piperidine-4-carboxamide] | 71 |
| C=CC(=O)NC(C)c1ccc(Oc2ccccc2)c(F)c1 (stereo not shown) [2-H13, N-[1-(3-fluoro-4-phenoxyphenyl)ethyl]prop-2-enamide] | 68.8 |
| C=CC(=O)N1CCC(C(=O)N2CCC(C(C)(C)O)CC2)CC1 [2-H14, 1-{4-[4-(2-hydroxypropan-2-yl)piperidine-1-carbonyl]piperidin-1-yl}prop-2-en-1-one] | 60.8 |
| C=CC(=O)NCCC1COCCO1 (stereo not shown) [2-H15, N-[2-(1,4-dioxan-2-yl)ethyl]prop-2-enamide] | 74.3 |
| C=CC(=O)N1CCC(C)C1 (stereo not shown) [2-H17, 1-(3-methylpyrrolidin-1-yl)prop-2-en-1-one] | 71.5 |
| C=CC(=O)N1CCC(C(=O)N2CCC(NC(=O)NC)CC2)CC1 [2-H18, 3-methyl-1-{1-[1-(prop-2-enoyl)piperidine-4-carbonyl]piperidin-4-yl}urea] | 83 |
| C=CC(=O)NC(C(N)=O)c1ccccc1F (stereo not shown) [2-H19, N-[carbamoyl(2-fluorophenyl)methyl]prop-2-enamide] | 51.9 |
| C=CC(=O)N(C)CC(=O)N1CCC(c2nc(-c3ccccc3)n[nH]2)CC1 [2-H20, N-methyl-N-{2-oxo-2-[4-(3-phenyl-1H-1,2,4-triazol-5-yl)piperidin-1-yl]ethyl}prop-2-enamide] | 67.6 |
| C=CC(=O)N1CC[C@H](NS(C)(=O)=O)C1 [2-H21, N-[(3S)-1-(prop-2-enoyl)pyrrolidin-3-yl]methanesulfonamide] | 60.7 |
| C=CC(=O)Nc1cc(NC(=O)[C@H]2C[C@@H](C(C)=O)C2(C)C)ccc1F [2-H22, (1S,3R)-3-acetyl-N-[4-fluoro-3-(prop-2-enamido)phenyl]-2,2-dimethylcyclobutane-1-carboxamide] | 97.4 |
| C=CC(=O)N1CC(c2ncon2)C1 [2-I03, 1-[3-(1,2,4-oxadiazol-3-yl)azetidin-1-yl]prop-2-en-1-one] | 181 |
| C=CC(=O)N1CCC(C(=O)N2CCn3ccnc32)CC1 [2-I04, 1-(4-{1H,2H,3H-[1,3]diazolo[1,2-a]imidazole-1-carbonyl}piperidin-1-yl)prop-2-en-1-one] | 99.3 |
| C=CC(=O)NCCN1CCOCC1C (stereo not shown) [2-I05, N-[2-(3-methylmorpholin-4-yl)ethyl]prop-2-enamide] | 79.2 |
| C=CC(=O)N1CCC(c2nnnn2C)CC1 [2-I06, 1-[4-(1-methyl-1H-1,2,3,4-tetrazol-5-yl)piperidin-1-yl]prop-2-en-1-one] | 95.6 |
| C=CC(=O)N1CCOC(c2ccccc2)C1 (stereo not shown) [2-I07, 1-(2-phenylmorpholin-4-yl)prop-2-en-1-one] | 118 |
| C=CC(=O)N(CC1CCOCC1)C1CC1 [2-I08, N-cyclopropyl-N-[(oxan-4-yl)methyl]prop-2-enamide] | 88 |
| C=CC(=O)NC[C@@H]1C[C@H](F)CN1Cc1csc(C)n1 [2-I09, N-{[(2S,4S)-4-fluoro-1-[(2-methyl-1,3-thiazol-4-yl)methyl]pyrrolidin-2-yl]methyl}prop-2-enamide] | 192 |
| C=CC(=O)N1CCC(c2cnn(C)c2)CC1 [2-I10, 1-[4-(1-methyl-1H-pyrazol-4-yl)piperidin-1-yl]prop-2-en-1-one] | 83.2 |
| C=CC(=O)NC(C)c1nnnn1-c1ccccc1 (stereo not shown) [2-I11, N-[1-(1-phenyl-1H-1,2,3,4-tetrazol-5-yl)ethyl]prop-2-enamide] | 196 |
| C=CC(=O)NCCNC(=O)c1c(C)cc(C)nc1C [2-I12, N-{2-[(2,4,6-trimethylpyridin-3-yl)formamido]ethyl}prop-2-enamide] | 104 |
| C=CC(=O)NCc1cn(-c2ccccc2)nn1 [2-I13, N-[(1-phenyl-1H-1,2,3-triazol-4-yl)methyl]prop-2-enamide] | 76.1 |
| C=CC(=O)N1CCC(C(=O)N(C)Cc2ccon2)CC1 [2-I14, N-methyl-N-[(1,2-oxazol-3-yl)methyl]-1-(prop-2-enoyl)piperidine-4-carboxamide] | 90.3 |
| C=CC(=O)N1CCC(c2ccnn2C)CC1 [2-I15, 1-[4-(1-methyl-1H-pyrazol-5-yl)piperidin-1-yl]prop-2-en-1-one] | 96.5 |
| C=CC(=O)NC1CC2(CCC(C(=O)O)CC2)C1 (stereo not shown) [2-I16, 2-(prop-2-enamido)spiro[3.5]nonane-7-carboxylic acid] | 92.8 |
| C=CC(=O)NC(c1nc(C)cs1)C(F)(F)F (stereo not shown) [2-I17, N-[2,2,2-trifluoro-1-(4-methyl-1,3-thiazol-2-yl)ethyl]prop-2-enamide] | 102 |
